Measurements as given in patent US20130303509A1, “NAMPT INHIBITORS” (AbbVie Inc., priority 2012, published 2013).

Tested on: PC3 cells
Assay: NAMPT Cell Proliferation Assay
Type: cell-based
Conditions: Homo sapiens, PC-3, 120 h, 5 days incubation, cell viability by Cell Titer Glo
How it was run: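 Five-day CellTiter-Glo viability readout in PC3 cells grown in RPMI/10% heat-inactivated FBS. Compounds added after overnight attachment as a 10-fold dilution series, […]. Percent inhibition fitted to sigmoidal dose-response to derive IC50.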

Compared with O=C(N[C@H]1CCN(c2cccnn2)C1)c1ccc(C2CCN(C(=O)c3ccc(F)cc3F)CC2)s1 [Example 761, 5-[1-(2,4-difluorobenzoyl)piperidin-4-yl]-N-[(3S)-1-(pyridazin-3-yl)pyrrolidin-3-yl]thiophene-2-carboxamide], O=C(N[C@H]1CCN(c2cccnn2)C1)c1ccc(C2CCN(C(=O)C3CCOCC3)CC2)s1 [Example 758, N-[(3S)-1-(pyridazin-3-yl)pyrrolidin-3-yl]-5-[1-(tetrahydro-2H-pyran-4-ylcarbonyl)piperidin-4-yl]thiophene-2-carboxamide] is 9.3-fold higher in IC50: 92.3 nM for the first, 857 nM for the second. The first is the more potent here.

Cc1cc(C)cc(CC(=O)N2CCC(c3ccc(NC(=O)C4CN(c5cccnn5)C4)cc3)CC2)c1 [Example 372, N-(4-{1-[(3,5-dimethylphenyl)acetyl]piperidin-4-yl}phenyl)-1-(pyridazin-3-yl)azetidine-3-carboxamide] and O=C(Nc1ccc(C2CCN(C(=O)Cc3ccc(Cl)cc3)CC2)cc1)C1CN(c2cccnn2)C1 [Example 370, N-(4-{1-[(4-chlorophenyl)acetyl]piperidin-4-yl}phenyl)-1-(pyridazin-3-yl)azetidine-3-carboxamide] are within 1.5-fold of each other in IC50: 7.06 nM for the first, 8.79 nM for the second.

COCC(=O)N1CCC(c2ccc(NC(=O)C3CN(c4cccnc4)C3)cc2)CC1 [Example 135, N-{4-[1-(methoxyacetyl)piperidin-4-yl]phenyl}-1-(pyridin-3-yl)azetidine-3-carboxamide] and O=C(Nc1ccc(C2CCN(C(=O)C3CCCCC3)CC2)cc1)C1CN(c2cccnc2)C1 [Example 136, N-{4-[1-(cyclohexylcarbonyl)piperidin-4-yl]phenyl}-1-(pyridin-3-yl)azetidine-3-carboxamide] are within 1.5-fold of each other in IC50: 0.3 nM for the first, 0.23 nM for the second.

First: O=C(Nc1ccc(O[C@@H]2CCN(C(=O)C3CC3)C2)cc1)C1CN(c2ccnnc2)C1 [Example 460, N-(4-{[(3R)-1-(cyclopropylcarbonyl)pyrrolidin-3-yl]oxy}phenyl)-1-(pyridazin-4-yl)azetidine-3-carboxamide]
Second: O=C(Nc1ccc(OC2CN(C(=O)C3CCOC3)C2)cc1)C1CN(c2ccnnc2)C1 (stereo not shown) [Example 208, 1-(pyridazin-4-yl)-N-(4-{[1-(tetrahydrofuran-3-ylcarbonyl)azetidin-3-yl]oxy}phenyl)azetidine-3-carboxamide]
The IC50 of the first is 2.7-fold lower: 223 nM for the first, 593 nM for the second.

First: O=C(Nc1ccc(C2CCN(C(=O)c3ccccc3)CC2)cc1)C1CN(c2cccnn2)C1 [Example 435, N-[4-(1-benzoylpiperidin-4-yl)phenyl]-1-(pyridazin-3-yl)azetidine-3-carboxamide]
Second: COc1ccccc1C(=O)N1CCC(c2ccc(NC(=O)C3CN(c4cccnn4)C3)cc2)CC1 [Example 345, N-{4-[1-(2-methoxybenzoyl)piperidin-4-yl]phenyl}-1-(pyridazin-3-yl)azetidine-3-carboxamide]
The IC50 of the first is 6.6-fold lower: 0.3 nM for the first, 1.99 nM for the second. The first is the more potent here.

Compared with CC(C)(C)OC(=O)N1CCC(F)(c2ccc(NC(=O)C3CN(c4cccnn4)C3)cc2)CC1 [Example 809, tert-butyl 4-fluoro-4-[4-({[1-(pyridazin-3-yl)azetidin-3-yl]carbonyl}amino)phenyl]piperidine-1-carboxylate], CC(C)(C)C(=O)N1CCC(c2ccc(NC(=O)C3CN(c4ccc(F)nn4)C3)cc2)CC1 [Example 820, N-{4-[1-(2,2-dimethylpropanoyl)piperidin-4-yl]phenyl}-1-(6-fluoropyridazin-3-yl)azetidine-3-carboxamide] is 31-fold higher in IC50: 2.4 nM for the first, 75.4 nM for the second.

First: Cc1ccccc1C(=O)N1CC[C@@H](Oc2ccc(NC(=O)[C@H]3CCN(c4cccnn4)C3)cc2)C1 [Example 779, (3S)-N-(4-{[(3R)-1-(2-methylbenzoyl)pyrrolidin-3-yl]oxy}phenyl)-1-(pyridazin-3-yl)pyrrolidine-3-carboxamide]
Second: COc1ccccc1C(=O)N1CCC(c2ccc(NC(=O)[C@H]3CCN(c4cccnn4)C3)cc2)CC1 [Example 727, (3S)-N-{4-[1-(2-methoxybenzoyl)piperidin-4-yl]phenyl}-1-(pyridazin-3-yl)pyrrolidine-3-carboxamide]
The IC50 of the first is 3.1-fold lower: 1.48 nM for the first, 4.6 nM for the second.

O=C(Nc1ccc(C2CCN(C(=O)c3ccccn3)CC2)cc1)C1CN(c2ccnnc2)C1 [Example 543, 1-(pyridazin-4-yl)-N-{4-[1-(pyridin-2-ylcarbonyl)piperidin-4-yl]phenyl}azetidine-3-carboxamide] and O=C(Nc1ccc(C2CCN(C(=O)c3cccc(OC(F)(F)F)c3)CC2)cc1)C1CN(c2ccnnc2)C1 [Example 562, 1-(pyridazin-4-yl)-N-(4-{1-[3-(trifluoromethoxy)benzoyl]piperidin-4-yl}phenyl)azetidine-3-carboxamide] are within 1.5-fold of each other in IC50: 7.7 nM for the first, 9.45 nM for the second.

Going from O=C(Nc1ccc(OC2CCN(C(=O)C3CCCO3)CC2)cc1)C1CN(c2ccnnc2)C1 (stereo not shown) [Example 302, 1-(pyridazin-4-yl)-N-(4-{[1-(tetrahydrofuran-2-ylcarbonyl)piperidin-4-yl]oxy}phenyl)azetidine-3-carboxamide] to O=C(Nc1ccc(OC2CN(C(=O)C3CCC(F)(F)CC3)C2)cc1)C1CN(c2ccnnc2)C1 [Example 202, N-[4-({1-[(4,4-difluorocyclohexyl)carbonyl]azetidin-3-yl}oxy)phenyl]-1-(pyridazin-4-yl)azetidine-3-carboxamide], the IC50 rises from 82.4 nM to 168 nM (2-fold). The first is the more potent here.

First: O=C(Nc1ccc(-c2cnn(CC3CC3)c2)cc1)[C@H]1CCN(c2cccnn2)C1 [Example 771, (3S)-N-{4-[1-(cyclopropylmethyl)-1H-pyrazol-4-yl]phenyl}-1-(pyridazin-3-yl)pyrrolidine-3-carboxamide]
Second: Cc1ccc(C(=O)N2CCC(c3ccc(NC(=O)[C@H]4CCN(c5cccnn5)C4)cc3)CC2)cc1C [Example 688, (3S)-N-{4-[1-(3,4-dimethylbenzoyl)piperidin-4-yl]phenyl}-1-(pyridazin-3-yl)pyrrolidine-3-carboxamide]
The IC50 of the first is 7.4-fold higher: 69.9 nM for the first, 9.4 nM for the second.

O=C(Nc1ccc(OC2CCN(C(=O)Cc3ccc(F)cc3F)CC2)cc1)C1CN(c2cccnn2)C1 [Example 236, N-[4-({1-[(2,4-difluorophenyl)acetyl]piperidin-4-yl}oxy)phenyl]-1-(pyridazin-3-yl)azetidine-3-carboxamide] and O=C(Nc1ccc(C2CCN(C(=O)c3cccc4ccccc34)CC2)cc1)C1CN(c2cccnn2)C1 [Example 406, N-{4-[1-(naphthalen-1-ylcarbonyl)piperidin-4-yl]phenyl}-1-(pyridazin-3-yl)azetidine-3-carboxamide] are within 1.5-fold of each other in IC50: 9.25 nM for the first, 7.42 nM for the second.

First: Cc1ccc(N2CC[C@H](C(=O)Nc3ccc(OC4CCN(C(=O)C(C)(C)C)CC4)cc3)C2)nn1 [Example 838, (3S)—N-(4-{[1-(2,2-dimethylpropanoyl)piperidin-4-yl]oxy}phenyl)-1-(6-methylpyridazin-3-yl)pyrrolidine-3-carboxamide]
Second: CC(C)C(C)C(=O)N1CCC(Oc2ccc(NC(=O)C3CN(c4cccnc4)C3)cc2)CC1 (stereo not shown) [Example 70, N-(4-{[1-(2,3-dimethylbutanoyl)piperidin-4-yl]oxy}phenyl)-1-(pyridin-3-yl)azetidine-3-carboxamide]
The IC50 of the first is 450-fold higher: 1770 nM for the first, 3.97 nM for the second. The second is the more potent here.

Going from O=C(Nc1ccc(O[C@@H]2CCN(C(=O)c3nccs3)C2)cc1)C1CN(c2ccnnc2)C1 [Example 443, 1-(pyridazin-4-yl)-N-(4-{[(3R)-1-(1,3-thiazol-2-ylcarbonyl)pyrrolidin-3-yl]oxy}phenyl)azetidine-3-carboxamide] to CC(C)(O)C(=O)N1CC(Oc2ccc(NC(=O)C3CN(c4ccnnc4)C3)cc2)C1 [Example 207, N-(4-{[1-(2-hydroxy-2-methylpropanoyl)azetidin-3-yl]oxy}phenyl)-1-(pyridazin-4-yl)azetidine-3-carboxamide], the IC50 rises from 5.65 nM to 671 nM (120-fold).

Going from Cc1cc(F)ncc1N1CC(C(=O)Nc2ccc(C3CCN(C(=O)c4ccccc4)CC3)cc2)C1 [Example 739, N-[4-(1-benzoylpiperidin-4-yl)phenyl]-1-(6-fluoro-4-methylpyridin-3-yl)azetidine-3-carboxamide] to Cc1ncccc1N1CC(C(=O)Nc2ccc(C3CCN(C(=O)CCN(C)C)CC3)cc2)C1 [Example 168, N-{4-[1-(N,N-dimethyl-beta-alanyl)piperidin-4-yl]phenyl}-1-(2-methylpyridin-3-yl)azetidine-3-carboxamide], the IC50 falls from 7310 nM to 1010 nM (7.2-fold). The second is the more potent here.

Compared with COc1ncccc1N1CC(C(=O)Nc2ccc(C3CCN(C(=O)C(C)(C)O)CC3)cc2)C1 [Example 73, N-{4-[1-(2-hydroxy-2-methylpropanoyl)piperidin-4-yl]phenyl}-1-(2-methoxypyridin-3-yl)azetidine-3-carboxamide], Cc1ncccc1N1CC(C(=O)Nc2ccc(C3CCN(C(=O)CN4CCN(C)CC4)CC3)cc2)C1 [Example 173, N-(4-{1-[(4-methylpiperazin-1-yl)acetyl]piperidin-4-yl}phenyl)-1-(2-methylpyridin-3-yl)azetidine-3-carboxamide] is 3.2-fold lower in IC50: 1980 nM for the first, 627 nM for the second. The second is the more potent here.

O=C(Nc1ccc(C2CC3CCC(C2)N3C(=O)c2ccccc2)cc1)C1CN(c2cccnn2)C1 (stereo not shown) [Example 842, N-[4-(8-benzoyl-8-azabicyclo[3.2.1]oct-3-yl)phenyl]-1-(pyridazin-3-yl)azetidine-3-carboxamide] and O=C(Nc1ccc(C2CC3CCC(C2)N3C(=O)c2ccccc2F)cc1)C1CN(c2cccnn2)C1 (stereo not shown) [Example 843, N-{4-[8-(2-fluorobenzoyl)-8-azabicyclo[3.2.1]oct-3-yl]phenyl}-1-(pyridazin-3-yl)azetidine-3-carboxamide] are within 1.5-fold of each other in IC50: 0.665 nM for the first, 0.61 nM for the second.

Compared with O=C(Nc1ccc(C2CCN(C(=O)c3cc(F)cc(F)c3)CC2)cc1F)C1CN(c2cccnn2)C1 [Example 834, N-{4-[1-(3,5-difluorobenzoyl)piperidin-4-yl]-2-fluorophenyl}-1-(pyridazin-3-yl)azetidine-3-carboxamide], CC(C)Cn1cc(-c2cc(C(=O)N[C@@H]3CCN(c4cnnc(Cl)c4Cl)C3)cs2)cn1 [Example 622, N-[(3R)-1-(5,6-dichloropyridazin-4-yl)pyrrolidin-3-yl]-5-[1-(2-methylpropyl)-1H-pyrazol-4-yl]thiophene-3-carboxamide] is higher in IC50: 14.4 nM for the first, > 10000 nM for the second.
